By melting point is commonly meant the temperature, or range, at which the solid turns liquid.

For the molecule `Cc1cc(C(=O)N2Cc3ccc(C(=O)O)n3Cc3ccccc32)ccc1-c1ccccc1C(F)(F)F`, the melting point lay in the range of 233 to 235 °C. Then `COc1cc(-c2ccccc2C)ccc1C(=O)N1Cc2ccc(C(=O)O)n2Cc2ccccc21`, with 201 to 204 °C. For `COc1cc(-c2ccccc2F)c(Cl)cc1C(=O)N1Cc2ccc(C(=O)O)n2Cc2ccccc21`, the melting point is 207 to 208 °C.

The record behind these values is patent publication US7109193B2, “Tricyclic diazepines tocolytic oxytocin receptor antagonists” (Wyeth, priority 2001, dated 2006).
